Assay results from PMC7962642, “A Synergic Potential of Antimicrobial Peptides against Pseudomonas syringae pv. actinidiae” (Molecules, 2021).
Converted amounts (≈) assume the structure as drawn. Where two headings read alike, the source gives them in different places. No end group written: not given here.

Key:
Psa strains [1] = assay: Minimal inhibitory concentration (MIC), microplate growth in MHB; assay type: cell-based, Pseudomonas syringae pv. actinidiae
Description: (§1) All strains were obtained from stocks preserved at –80 °C and cultured in King’s B medium (protease peptone, 20.0 g; anhydrous K2HPO4, 1.5 g; glycerol, 10.0 mL; MgSO4·7H2O, 1.5 g; agar, […]; distilled water up to 1.0 L). Individual colonies of each strain were selected and re-streaked two times to ensure purity. Psa strains were isolated in different infected kiwifruit orchards between 2013 and 2017. CFBP7286 was used as Psa biovar 3 reference strain. For the antibiogram assays, pure colonies of all bacterial strains were grown overnight in Muller-Hinton Broth (MHB; Oxoid), at 28 °C and 240 rpm. Bacterial growth was monitored and adjusted to 0.135 optical density at 600 nm (OD600) in a spectrophotometer (Genesys 10uv Scanning, Thermo Scientific). […] For flow cytometry experiments, bacteria were cultured in King’s B broth medium for 20 h, at 25 °C in a shaking incubator at 200 rpm.
(§2) The MIC and MBC were determined for peptides discriminated by the antibiograms as the most efficient, i.e., RW-BP100, CA-M, 3.1, and BP100. […] In this assay, additional concentrations to those used in the antibiogram analysis were included in order to obtain more accurate results. Sterile 96-well microplates were filled with 150 µL of peptide and bacterial solution in a 1:1 ratio, leading to final concentrations of peptides equal to 0.25, 0.75, 1.6, 3.4, 6.2, 10, 25, 50, and 100 µM. As negative control a bacterial-free solution and sterile distilled water was used, and positive control with chlortetracycline to a final concentration of 25 µM was used. Microplates were incubated at 25 °C and 130 rpm and OD600 was measured hourly for 24 h, with 30 s vigorous shaking before each reading. The experiment was repeated three distinct times with different fresh bacterial colonies.
(§3) Data from bacterial growth curves were analyzed to determine IC50 values with two-way ANOVA and Tukey tests (p < 0.05). MIC values were set as the peptide lowest concentrations that reduced bacterial growth.

Psa strains [2] = assay: Minimal bactericidal concentration (MBC), subculture on peptide-free King's B agar; assay type: cell-based, Pseudomonas syringae pv. actinidiae
Description: as §1, §2, §3

Psa strains [3] = assay: IC50 from bacterial growth curves; assay type: cell-based, Pseudomonas syringae pv. actinidiae; conditions: based on bacterial growth curves, read-out: half-maximal inhibitory concentration (IC50)
Description: as §2, §3

Psa CFBP7286 = assay type: cell-based; conditions: 1 h treatment; alone or combined with 3.1 at equal concentrations
Description: The number of viable bacteria cells of CFBP7286 strains was determined by CFU counting, using bacteria inocula exposed to the same AMPs (doses and periods of exposure) than those used on the flow cytometry assays. In the individual evaluation of BP100, CA-M, and 3.1 AMPs as well as the mixtures BP100:3.1 and CA-M:3.1, CFUs were determined by the drop method in the plate. All treated samples and controls were subjected to 10 serial ^1/10 dilutions in sterile PBS and 10 μL of each dilution was cultured on King’s B agar (1.5%) plates, with further incubation at 25 °C for 24 h. After the incubation time, plates were recorded in a GelDoc (BioRad) and colonies were counted for the last dilution with bacterial growth. This experiment was performed in three biological and temporal replicates.

[4] = system: Nicotiana tabacum cv. 'Havana' leaves; assay: AMP toxicity on tobacco leaves by syringe infiltration; assay type: in vivo; conditions: AMP alone in PBS at assay concentration
Description: To assess the HR, the Psa reference CFBP7286 strain was used. CFBP7286 cells were more exposed to the AMPs (doses and periods of exposure) than those used on the flow cytometry and the CFUs analyzes; from individual effects of AMPs on the reference CFBP7286 strain, the HR was assessed. Tobacco plants (Nicotiana tabacum cv. ‘Havana’) were sown in plant pots of 1 L in peat substrate (Siro, Mira, Portugal). Plants were grown for 8 weeks in a growth chamber with a controlled temperature at 25 °C ± 2 and relative humidity at 50% ± 5. Psa infiltration on tobacco plants for HR was performed according to Stefani and Loreti using a syringe tip to inoculate 1 mL of bacterial suspension after 1 h of AMPs treatments in the abaxial side of the leaves. PBS was used as a negative control and Psa CFBP7286 at the same concentration and diluted in PBS for 1 h as the treatment was infiltrated as a positive control for HR. The AMPs at the assay concentration were prepared in PBS and infiltrated, also as a negative control of the treatment. The development of HR was monitored within 24 and 48 h post infiltration (hpi). Three tobacco plants, and three leaves of each plant, were used in three independent experiments.

tobacco leaf = conditions: cited from earlier work
Description: The assays on tobacco plants are often used to analyze the toxicity effects of AMPs [[29],[30],[49],[5 ...

[5] = system: Pseudomonas syringae pv. actinidiae (Psa) strains; assay: Antibiogram assay (peptide drop on inoculated MH agar); assay type: cell-based; set-up: key: “ns” means the strain was not susceptible to the peptide in the tested concentration range; conditions: 1 µL drop on MH agar, 25 °C, 24 h, tested 0.4-200 µM
Description: All strains were obtained from stocks preserved at –80 °C and cultured in King’s B medium (protease peptone, 20.0 g; anhydrous K2HPO4, 1.5 g; glycerol, 10.0 mL; MgSO4·7H2O, 1.5 g; agar, […]; distilled water up to 1.0 L). Individual colonies of each strain were selected and re-streaked two times to ensure purity. Psa strains were isolated in different infected kiwifruit orchards between 2013 and 2017. CFBP7286 was used as Psa biovar 3 reference strain. For the antibiogram assays, pure colonies of all bacterial strains were grown overnight in Muller-Hinton Broth (MHB; Oxoid), at 28 °C and 240 rpm. Bacterial growth was monitored and adjusted to 0.135 optical density at 600 nm (OD600) in a spectrophotometer (Genesys 10uv Scanning, Thermo Scientific). […]
All six AMPs, BP100, RW-BP100, CA-M, D4E1, 3.1, and Dhvar-5 (Table 3), were evaluated by antibiogram assays to determine the most promising peptides against the selected bacterial strains. […]
For the pre-incubation, bacterial cultures were inoculated in Muller-Hinton (MH; Oxoid) agar (1.5%) medium by spreading 1 mL of each culture, removing the excess after 1 min and allowing drying for 15 min. […] After the incubation period, plate images were acquired on Gel Doc (BioRad, Hercules, CA, USA) and AMP activity was determined by no growth on drop site for each concentration. […]

[6] = reference strain CFBP7286, MHB, 96-well, 25 °C, 130 rpm, OD600 hourly for 24 h, repeated three times
[7] = strain AL114b, MHB, 96-well, 25 °C, 130 rpm, OD600 hourly for 24 h, repeated three times
[8] = strain AL115, MHB, 96-well, 25 °C, 130 rpm, OD600 hourly for 24 h, repeated three times
[9] = strain Fv62, MHB, 96-well, 25 °C, 130 rpm, OD600 hourly for 24 h, repeated three times
[10] = strain P85, MHB, 96-well, 25 °C, 130 rpm, OD600 hourly for 24 h, repeated three times
[11] = strain VN29, MHB, 96-well, 25 °C, 130 rpm, OD600 hourly for 24 h, repeated three times
[12] = strain VV10, MHB, 96-well, 25 °C, 130 rpm, OD600 hourly for 24 h, repeated three times
[13] = strain VV112, MHB, 96-well, 25 °C, 130 rpm, OD600 hourly for 24 h, repeated three times
[14] = reference strain CFBP7286, subculture on peptide-free King's B agar, 25 °C, 24 h
[15] = strain AL114b, subculture on peptide-free King's B agar, 25 °C, 24 h
[16] = strain AL115, subculture on peptide-free King's B agar, 25 °C, 24 h
[17] = strain Fv62, subculture on peptide-free King's B agar, 25 °C, 24 h
[18] = strain P85, subculture on peptide-free King's B agar, 25 °C, 24 h
[19] = strain VN29, subculture on peptide-free King's B agar, 25 °C, 24 h
[20] = strain VV10, subculture on peptide-free King's B agar, 25 °C, 24 h
[21] = strain VV112, subculture on peptide-free King's B agar, 25 °C, 24 h
[22] = summary over the eight Psa strains (abstract)
[23] = all strains (for CA-M except P85 and VN29), repeated three times

Compound | MIC (Psa strains [1]; [6]) [µM] | MIC (Psa strains [1]; [7]) [µM] | MIC (Psa strains [1]; [8]) [µM] | MIC (Psa strains [1]; [9]) [µM] | MIC (Psa strains [1]; [10]) [µM] | MIC (Psa strains [1]; [11]) [µM] | MIC (Psa strains [1]; [12]) [µM] | MIC (Psa strains [1]; [13]) [µM] | MBC (Psa strains [2]; [14]) [µM] | MBC (Psa strains [2]; [15]) [µM] | MBC (Psa strains [2]; [16]) [µM] | MBC (Psa strains [2]; [17]) [µM] | MBC (Psa strains [2]; [18]) [µM] | MBC (Psa strains [2]; [19]) [µM] | MBC (Psa strains [2]; [20]) [µM] | MBC (Psa strains [2]; [21]) [µM] | MBC (Psa strains [2]; [22]) [µM] | IC50 (Psa strains [3]; [23]) [µM] | AMP toxicity on tobacco plants [4] | also measured
CC[C@H](C)[C@H](NC(=O)[C@H](CCCCN)NC(=O)[C@H](CCCCN)NC(=O)[C@H](Cc1ccccc1)NC(=O)[C@H](CC(C)C)NC(=O)[C@H](CCCCN)NC(=O)[C@@H](N)CCCCN)C(=O)N[C@@H](CC(C)C)C(=O)N[C@@H](CCCCN)C(=O)N[C@@H](Cc1ccc(O)cc1)C(=O)N[C@@H](CC(C)C)C(N)=O [BP100, reference compound] | 3.4 (≈ 4.83 µg/mL) | 3.4 (≈ 4.83 µg/mL) | 3.4 (≈ 4.83 µg/mL) | 3.4 (≈ 4.83 µg/mL) | 3.4 (≈ 4.83 µg/mL) | 3.4 (≈ 4.83 µg/mL) | 3.4 (≈ 4.83 µg/mL) | 3.4 (≈ 4.83 µg/mL) | 3.4 (≈ 4.83 µg/mL) | 3.4 (≈ 4.83 µg/mL) | 3.4 (≈ 4.83 µg/mL) | 10 (≈ 14.2 µg/mL) | 6.2 (≈ 8.81 µg/mL) | 6.2 (≈ 8.81 µg/mL) | 6.2 (≈ 8.81 µg/mL) | 10 (≈ 14.2 µg/mL) | 3.4 to 10 | ~2 | absence/low toxicity | lethal concentration of BP100 by CFUs (Psa CFBP7286): 2 µM; tobacco leaf lesions (tobacco leaf; at 50 µM): 4 mm; tobacco leaf lesions (tobacco leaf; at 250 µM): 12.5 mm
KKLLKWLLKLL-NH2 [3.1] | 10 | 25 | 10 | 10 | 25 | 10 | 10 | 10 | 25 | 25 | 10 | 25 | 25 | 25 | 25 | 25 | – | – | absence/low toxicity | –
KWKLFKKIGAVLKVL-NH2 [CA-M] | 3.4 | 3.4 | 3.4 | 3.4 | 6.2 | 6.2 | 3.4 | 3.4 | 6.2 | 10 | 6.2 | 10 | 6.2 | 6.2 | 6.2 | 6.2 | 3.4 to 10 | ~2 | absence/low toxicity | MIC (Psa strains [1]; [22]): 3.4 to 6.2 µM; IC50 (Psa strains [3]; strain P85): ~4 µM; IC50 (Psa strains [3]; strain VN29): ~4 µM
LLLFLLKKRKKRKY-NH2 [Dhvar-5] | – | – | – | – | – | – | – | – | – | – | – | – | – | – | – | – | – | – | – | antibiogram inhibitory concentration ([5]; strain VC104b): ns; antibiogram inhibitory concentration ([5]; strain VN29): ns
RRLFRRILRWL-NH2 [RW-BP100] | 3.4 | 6.2 | 6.2 | 6.2 | 6.2 | 6.2 | 6.2 | 6.2 | 6.2 | 6.2 | 6.2 | 6.2 | 6.2 | 6.2 | 6.2 | 6.2 | – | – | – | –
